{"source": "paper PMC10020447", "about": "“Potent acyl-CoA synthetase 10 inhibitors kill Plasmodium falciparum by disrupting triglyceride formation” (Nature Communications, 2023)", "key": {"[1]": {"tested_on": "T1, Plasmodium falciparum 3D7", "T1 construct": "3D7 parental line, asexual blood stage", "test": "microbe, parasite or virus in culture", "set-up": "species or system P. falciparum 3D7 in human erythrocytes; Asexual blood stage growth inhibition dose response of parental 3D7 parasites, EC50", "settings": "3D7, Erythrocyte", "excerpt": "Fig. 1 Gene-edited PfACS10 and PfACS11 lines phenocopy parasite lines selected to become resistant to a range of antiplasmodial chemotypes. a Chemical structures of the compounds used in drug selections. b–d Dose response curves for a representative example of the parental 3D7 line (black), the selected lines (ACS11E668K_S, ACS11F387V_S, and ACS10M300I_S) and the genetically edited lines (ACS11E668K_C, ACS11F387V_C, and ACS10M300I_C) against the compound used to select for the resistant lines. At least three biological replicates were run for each strain in technical triplicates. Shown are the average ±SD and the non-linear regression curve fit for one biological assay run in triplicate. Statistical significances for EC50 are reported in Supplementary Data 1 and source data are provided as a Source Data file. Previous work by the MalDA consortium identified MMV019719 and MMV665924 as two new phenotypic hits from the chemically diverse Medicines for Malaria Venture (MMV) Malaria Box[8],[12]. […] To verify the role of these mutations in conferring resistance to these two compounds (resistance is defined here as a more than 2-fold shift in EC50 values in in vitro culture compared to the parental line), we used CRISPR/Cas9 technology to perform allelic replacements of a subset of the mutations observed (Supplementary Fig. 1 and Supplementary Table 1). Using the 3D7 parental line, we introduced the individual point mutations F387V or E668K into PfACS11 and M300I into PfACS10, yielding the gene-edited lines ACS11F387V_C, ACS11E668K_C, and ACS10M300I_C. These parasites phenocopied the increase in EC50 values seen in drug-selected compared to wildtype parasites (Fig. 1a–c and Supplementary Data 1). These findings confirm that the mutations in PfACS10 and PfACS11 identified by resistance selections with MMV019719 and MMV665924 are sufficient to reduce susceptibility to these compounds. […] MMV019719, MMV665924, and MMV897615 were freely available as part of the Medicines for Malaria Venture’s (MMV) Malaria Box. Triacsin C was purchased from Sigma-Aldrich (St. Louis, MO, ref. T4540). The 3D7 P. falciparum strain was originally obtained through MR4 as part of the BEI Resources Repository, NIAID, NIH: 3D7, MRA-102, deposited by D. J. Carucci. We also used 3D7- IG06 (a fast-growing 3D7 clone)[64] donated by Daniel Goldberg and Dd2-Polδ[23] donated by Marcus Lee. The Malawi parasites (CF04.008 10B and CF04.009 6D and 1 G, two different patient isolates that were subcloned after culture adaption) were kindly donated by Danny Milner[26]. Parasites were cultured by standard methods[65] in RPMI 1640 medium supplemented with 28 mM NaHCO3, 25 mM HEPES, 400 μM hypoxanthine, 25 μg/mL gentamicin, and 0.5% AlbuMAX II (Life Technologies, Carlsbad, CA 11021-045). The human erythrocytes were sourced ethically, and their research use was in accord with the terms of approved protocol."}, "[2]": {"tested_on": "T2, Plasmodium falciparum PolD (Dd2-Polδ)", "T2 construct": "Dd2-Polδ parental hypermutator line, wild-type PfACS10, asexual blood stage", "test": "microbe, parasite or virus in culture", "set-up": "species or system P. falciparum Dd2-Polδ in human erythrocytes; Parasite survival dose response by flow cytometry with SYBR Green and MitoTracker Deep Red, EC50", "settings": "DD2, Erythrocyte, 72 h", "procedure": "To define the EC50 of parasites, ring-stage cultures at 0.2% parasitemia and 1% hematocrit were exposed for 72 h to a range of ten drug concentrations that were 2-fold serially diluted in duplicates along with DMSO controls. Parasite survival was assessed by flow cytometry on an iQue flow cytometer (Sartorius) using SYBR Green and MitoTracker Deep Red FM (Life Technologies) as nuclear stain and vital dyes respectively. Fig. 2 Mutations in PfACS10 can cause collateral sensitivity to distinct chemotypes. Mean EC50 ± SD values for strains containing mutations in PfACS10 selected in the Dd2-Polδ line (A268D, A268V, and F427L) and in 3D7 (M300I), are shown for MMV897615, MMV665924, and MMV019719. Assays were run in triplicate and at least repeated twice. ANOVA with Dunnett post-tests compared mutations in the Dd2-Polδ line, a p < 0.001, b p = 0.005. Two-sided unpaired Student’s t test compared 3D7 and ACS10M300I_C. c p = 0.0003, d p = 0.0000008, e p = 0.0016. Source data are provided as a Source Data file and in Supplementary Data 1. More recently, we performed selections in a hypermutator P. falciparum line (Dd2-Polδ[23]) with MMV897615, which yielded three novel mutations in PfACS10 that confer at least a seven-fold increase in resistance (ACS10A268D, ACS10A268V, and ACS10F427L, Fig. 2 and Supplementary Data 1 and 3). […]"}}, "note": "Where two headings read alike, the source gives them in different places.", "data": [{"smiles": "O[C@@H](c1cc(C(F)(F)F)nc2c(C(F)(F)F)cccc12)[C@H]1CCCCN1", "note": "(racemic) [mefloquine]", "values": [{"measurement": "EC50", "setting": "[1]; read-out: Mefloquine (MQ) / EC50 [nM]", "value": 15.3, "unit": "nM"}]}, {"smiles": "CCc1cccc(CNC(=O)c2nc3cccc(COCc4ccc(C(=O)O)cc4)c3c(=O)[nH]2)c1", "note": "[19f, MMV897615]", "values": [{"measurement": "EC50", "setting": "[2]; read-out: MMV897615 / EC50 [nM] (b) / EC50 [nM] (c)", "value": 39.6, "unit": "nM"}, {"measurement": "EC50", "setting": "[1]; read-out: MMV897615 / EC50 [nM] (b)", "value": 52.9, "unit": "nM"}]}, {"smiles": "COc1ccc(C(=O)C2CC2c2ccc(Cl)cc2)cc1", "note": "(stereo not drawn) [MMV665924]", "values": [{"measurement": "EC50", "setting": "[2]; read-out: MMV665924 / EC50 [nM] (a) / EC50 [nM] (c)", "value": 1360, "unit": "nM"}, {"measurement": "EC50", "setting": "[1]; read-out: MMV665924 / EC50 [nM] (a)", "value": 340, "unit": "nM"}]}, {"smiles": "CCC/C=C/C/C=C/C=C/C=N/NN=O", "note": "[Triacsin C]", "values": [{"measurement": "EC50", "setting": "[1]; read-out: Triacsin / EC50 [nM]", "value": 549, "unit": "nM"}]}, {"smiles": "CCN(CC)Cc1cc(Nc2ccnc3cc(Cl)ccc23)ccc1O", "note": "[amodiaquine]", "values": [{"measurement": "EC50", "setting": "[1]; read-out: Amodiaquin (ADQ) / EC50 [nM]", "value": 4.34, "unit": "nM"}]}, {"smiles": "O=C1C(O)=C([C@H]2CC[C@H](c3ccc(Cl)cc3)CC2)C(=O)c2ccccc21", "note": "[atovaquone]", "values": [{"measurement": "EC50", "setting": "[1]; read-out: Atovaquone (ATQ) / EC50 [nM]", "value": 0.287, "unit": "nM"}]}, {"smiles": "C=C[C@H]1CN2CC[C@H]1C[C@H]2[C@H](O)c1ccnc2ccc(OC)cc12", "note": "[quinine]", "values": [{"measurement": "EC50", "setting": "[1]; read-out: Quinine (QN) / EC50 [nM]", "value": 37.3, "unit": "nM"}]}]}
